Our source for the kapp, t50 and tlag values is PMC10917278, “Structural insights into the modulation Of SOD1 aggregation By a fungal metabolite Phialomustin-B: Therapeutic potential in ALS” (PLOS ONE, 2024).

This test addresses T1, SOD1^WT (Homo sapiens, UniProt P00441).
T1 construct: The full-length constructs of SOD1-wild type (aa: 1–145); His-tag (cleaved yes); made in house; host or cells: E. coli BL21 DE3
Description: Thioflavin T (ThT) fluorescence aggregation assay, SOD1^WT. Type of test: biochemical. To be noted: 37 °C, reduced conditions. The method, then: Following the co-crystal structure elucidation of SOD1 in complex with PB, we wanted to identify the effect of PB on the aggregation of SOD1^WT and its disease mutant, SOD1^A4V. A comprehensive analysis of the anti-aggregation propensity of PB was performed using a ThT-based fluorescence assay and analytical size-exclusion based chromatography (SEC) assay. We used Thioflavin-T, a β-sheet formation reporter, to assess the aggregation of SOD1. Time lag (tlag) is a kinetic parameter used to evaluate the lag phase of fibrillation. Fibril elongation was used to evaluate the rate of β sheet formation. […] Similar effects on lag time are also observed for SOD1^A4V. […] Moreover, ThT-based aggregation assays were also performed for the PB site-specific mutants, SOD1^A123F, SOD1^K9F, SOD1^L42R, and SOD1^G10P (S4a, S4c, S4e and S4g Fig). As expected based on the abovementioned MST results, the aggregation analysis is inconclusive as these mutants, which correspond to the ligand binding residues, cause a loss of protein-ligand interactions.
Fig 6 Aggregation studies of metallated and reduced SOD1^WT and SOD1^A4V on treatment with PB. ThT fluorescence was monitored during the co-incubation of metallated SOD1^WT (50 μM) (a) or SOD1^A4V (50 μM) (b) with PB at 1:30 molar ratio at 37 °C with continuous shaking, under reduced conditions. The values were normalized to the maximal ThT intensity elicited by SOD1^WT or SOD1^A4V and fitted to a Boltzmann sigmoidal equation. The control and PB-treated species were compared to analyse the effects of PB on the aggregation of SOD1^WT and SOD1^A4V. Error bars indicate the standard deviation. Analytical SEC of metallated SOD1^WT (50 μM) (c) and SOD1^A4V (50 μM) (d) with PB were analyzed under reducing conditions before and after 24 hrs and 48 hrs incubation at 37 °C. The first peak eluting at the volume was denoted as oligomerized SOD1^WT/SOD1^A4V (L). The second, third, and fourth peaks were calculated as trimer (T), dimer (D), and monomer (M) species of SOD1^WT/SOD1^A4V running at 14.5 ml, 15.7 ml, and 16.5 ml, respectively. […] The monomer (M), dimer (D), trimer (T), and large aggregate (L) species are shown as green, purple, red, and black dotted lines, respectively. All the experiments were performed for n = 3 biological replicates.
Fig 7 Aggregation studies of de-metallated and reduced SOD1^WT and SOD1^A4V on treatment with PB. ThT fluorescence was monitored during the co-incubation of de-metallated SOD1^WT (50 μM) (a) or SOD1^A4V (50 μM) (b) with PB at 1:30 molar ratio at 37 °C with continuous shaking, under reduced conditions. The values were normalized to the maximal ThT intensity elicited by SOD1^WT or SOD1^A4V and fitted to a Boltzmann sigmoidal equation. The control and PB-treated species were compared to analyse PB’s effects on the aggregation of SOD1^WT and SOD1^A4V. Analytical SEC of de-metallated SOD1^WT (50 μM) (a) and SOD1^A4V (50 μM) (b) with PB were analysed under reducing conditions before and after 24 hrs and 48 hrs incubation at 37 °C. The first peak eluting at the volume was denoted as oligomerized SOD1^WT (L) runs at 9.2 ml. The second, third, and fourth peaks were calculated as trimer (T), dimer (D), and monomer (M) species of SOD1^WT/SOD1^A4V running at 14.5 ml, 15.7 ml, and 16.5 ml, respectively. […] In the case of SOD1^A4V, PB eliminates the formation of large aggregates compared to the control (48hrs-EC, EC represents control with EDTA). […]

The mark [1] stands for this setting: De-metallated (5 mM EDTA) SOD1^WT 50 μM with PB at 1:30 molar ratio.
[2] abbreviates: Metallated SOD1^WT 50 μM with PB at 1:30 molar ratio.

Molecules are shown by their SMILES.

T1 sequence (P00441 whole entry): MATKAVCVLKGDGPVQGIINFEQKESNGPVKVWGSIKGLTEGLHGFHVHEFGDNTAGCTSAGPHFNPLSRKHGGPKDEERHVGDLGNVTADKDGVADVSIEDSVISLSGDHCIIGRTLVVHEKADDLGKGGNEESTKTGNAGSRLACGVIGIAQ

As to `CCCC[C@H](C)/C=C(C)/C=C/C(=O)O` [PB, (S, 2E, 4E)-4,6-dimethyldeca-2,4-dienoic acid], under setting [1], the kapp was 0.374 h⁻¹, the t50 amounted to 1.851 h and the tlag is recorded as 1.84 h. Also, under setting [2], the kapp was found to be 0.233 h⁻¹ and the t50 came to 2.976 h.
